Reference: publication PMC11696576, “Next generation thiazolyl ketone inhibitors of cytosolic phospholipase A2 α for targeted cancer therapy” (Nature Communications, 2025)
“And” between values parts separate entries of the source, which are not always exact repeats. Identical values can stand only once. Like-named read-outs stand apart in the source and are kept apart here. Marks after values point to notes of the source that are not given here.

How the values were obtained:
secreted GV sPLA2 = target: T1, secreted GV sPLA2 (Homo sapiens, UniProt P39877); test: radioactivity-based mixed micelle assay, GV sPLA2; format: biochemical
T1 sequence (P39877 21-138): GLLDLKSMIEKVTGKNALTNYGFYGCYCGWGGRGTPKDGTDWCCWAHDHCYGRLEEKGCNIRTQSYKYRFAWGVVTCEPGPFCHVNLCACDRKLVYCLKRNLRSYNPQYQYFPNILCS
Experimental: All synthesized thiazolyl ketones were tested for their in vitro inhibitory activity on recombinant human cPLA2α and selectivity over human calcium-independent GVIA iPLA2 and secreted GV sPLA2 using our previously described group-specific radioactivity-based mixed micelle assays. The inhibition results are presented either as per cent inhibition or as XI(50) values in Table 1. […] The XI(50) is defined as the mole fraction of the inhibitor in the total substrate interface required to inhibit the enzyme activity by 50%. For comparison purposes, previously published data for the inhibitor GK470[19] are included. […] Inhibitors were initially screened at 0.091 mol fraction (5 μL of 5 mM inhibitor in DMSO) in substrate (495 μL) in technical triplicates. […] The XI(50) value and stdev values reported are for the entire curve. This analysis was performed in GraphPad Prism v6.

[1] = stability in human plasma (LC-MS/MS); format: in vitro ADME; details: for Stability in human plasma 4 h: % of the compound remaining after 4 h
Experimental: The stability of the analogs in human plasma was studied over approximately 24 h by LC-MS/MS and the results at 4 h and the final timepoint (20–25 h) are included in Table 1.
The metabolic stability of the compounds was determined through in vitro stability assays in human plasma. Solutions of compounds in DMSO (20 mM) were diluted to 5 μg/mL in 50% methanol for infusion into the MS/MS system and spiking of calibration standards and control samples. For the MS detection, positive ionization in ESI mode was used. Good sensitivity, retention and peak shaped were achieved using a gradient with 5 mM ammonium carbamate in water and ammonium carbamate in 90% acetonitrile on a reversed phase column (ACE3AQ). Calibration standards were spiked in a calibration range of 0.5–100 ng/ml. Control samples were spiked at, low, medium, and high concentration levels. The spiked plasma samples were prepared by protein precipitation using acetonitrile containing appropriate internal standard (IS). […] Samples were prepared for analysis by taking 50 μL of plasma sample and adding 100 μL of IS working solution in acetonitrile followed by vortexing at 2500 rpm (Multi-tube vortexer DVX-2500, Henry Troemner LLC, USA) for 2 min. The samples were centrifuged at 5300 rpm (Heraeus Megafuge 1.0 Heraeus, Germany) for 3 min and the supernatant transferred to the autosampler. Recovery was determined by comparing the prepared matrix samples (protein precipitation) with a direct sample (analytes spikes in 67% acetonitrile = injection solution) such that the recovery of the sample preparation and the matrix effects were determined together. Two or three samples were each measured in technical triplicates to give the final % recovery.

SW982 synoviocytes = test: cellular arachidonic acid (AA) release assay, IL-1β stimulated; format: cell-based, human; details: for EC50 / IC50: SW982; for IC50: concentration in µM, read-out: logEC50 best-fit value, AA release (converted)
Text: To test the inhibitory activity of the compounds in cells, we measured their effect on the release of AA from synoviocytes stimulated with IL-1β (Table 2). […] Combined with favorable selectivity and stability it was thus chosen for further evaluation. We looked specifically at how it modulated eicosanoid levels in response to stimulation both in whole blood and in isolated peripheral blood mononuclear cells (PBMCs) and checked for off-target effects on AA metabolism in whole blood by also measuring the effect of GK420 on eicosanoid release in the presence of exogenous free AA.
The human synovial sarcoma cell line SW982 (ATCC, London, UK) was used to measure AA release. The cells were maintained in Dulbecco’s Modified Eagle Medium (DMEM) supplemented with 10% FBS, 0.1 mg/mL gentamicin, and 0.3 mg/mL L-glutamine at 37 °C with 10% CO2, and experiments were performed at 3 days post-confluence. To measure AA release, the cells were labeled overnight with ^3H-AA (0.4 μCi/mL) in serum-free DMEM and then washed twice with PBS containing fBSA (2 mg/mL) to remove unincorporated radioactivity. The inhibitors, or DMSO vehicle control, were subsequently added to the cells for 1 hour prior to stimulation with 10 ng/mL IL-1β for 4 h. Supernatants were collected and centrifuged at 300 × g for 5 min to clear them of detached cells and adherent cells were dissolved in 1 N NaOH. The ^3H-AA was assessed by liquid scintillation counting (LS 6500 Multi-Purpose Scintillation Counter, Beckman Coulter, Inc., USA) and the results are given as the inhibition of released ^3H-AA in the supernatants relative to total ^3H-AA incorporated into the cells, as described. EC50 values were calculated by fitting the % inhibition data to a three-parameter dose-response curve in GraphPad prism v10.4.0. Experiments were performed in technical triplicates and repeated at least three times.

[2] = 0.091 mole fraction, read-out: GV sPLA2 % Inhib
[3] = individual technical replicate, read-out: sPLA2 % inhibition at 0.091 mole fraction
[4] = individual sample, human plasma
[5] = 0.2 µM, individual biological replicate
[6] = 1 µM, individual biological replicate
[7] = 5 µM, individual biological replicate
[8] = Homo sapiens, SW982, 4 h, 1 µM inhibitor, IL-1β 4 h, mean ± stdev, read-out: AA release % Inhib
[9] = Homo sapiens, IL-1β 4 h, 0.2, 1 or 5 µM inhibitor, read-out: AA release EC50 µM (95% CI)
[10] = Homo sapiens, [Agonist] vs. Response (three parameters)
[11] = Homo sapiens, [Agonist] vs. Response (three parameters), read-out: EC50 best-fit value, AA release

| inhibition at 0.091 mole fraction (secreted GV sPLA2; [2]) | inhibition at 0.091 mole fraction (secreted GV sPLA2; [3]) | Stability in human plasma 4 h [1] | Stability in human plasma 20+ h ([1]; % of the compound remaining after 24 h 39 min (*)) | plasma stability 24h39min (%) [1, 4] | plasma stability 4h (%) [1, 4] | EC50 (SW982 synoviocytes; [9]) | IC50 (SW982 synoviocytes; [10]) | EC50 (SW982 synoviocytes; [11]) | inhibition at 0.091 mole fraction (secreted GV sPLA2; average of triplicates, read-out: sPLA2 % inhibition at 0.091 mole fraction, average) | Stability in human plasma 20+ h ([1]; % of the compound remaining after 25 h (¤)) | plasma stability 25h (%) [1, 4] | SMILES | % inhibition of stimulated AA release (SW982 synoviocytes; [5]) | % inhibition of stimulated AA release (SW982 synoviocytes; [6]) | % inhibition of stimulated AA release (SW982 synoviocytes; [7]) | inhibition at 1 µM (SW982 synoviocytes; [8]) | inhibition at 1 µM (SW982 synoviocytes; Homo sapiens, SW982, 1 µM, individual biological replicate, read-out: % inhibition of stimulated AA release) | inhibition at 5 µM (SW982 synoviocytes; Homo sapiens, SW982, 5 µM, individual biological replicate) |
| --- | --- | --- | --- | --- | --- | --- | --- | --- | --- | --- | --- | --- | --- | --- | --- | --- | --- | --- |
| 53% | 51.8% | 63% | 18.35* % | 16.1% and 20.6% | 58.4% and 67.6% | 0.78 µM | 0.783 µM | 0.783 µM |  |  |  | CCCCCCSc1ccc(OC(C)C(=O)c2nc(C(=O)OC)cs2)cc1 (centres unmarked) [GK449] | 16.56% and 7.46% and 9.46% and 46.5% | 47.16% and 43.5% and 67.91% and 74.94% | 92.05% and 77.81% and 56.83% and 101.84% | 58 ± 15% |  |  |
| 46% | 45.9% | 69.3% |  |  | 65.9% and 74% and 67.2% | 0.63 µM | 0.63 µM | 0.63 µM | 46.1% | 16.25¤ % | 16.8% and 15.7% | CCCCCCCCc1ccc(OCC(=O)c2nc(C(=O)OCC)cs2)cc1 [GK401] | 23.49% and 44.31% and 23.09% and 42.93% | 46.19% and 56.11% and 60.73% | 83.12% and 89.8% and 99.4% | 53 ± 6% | 49.8% | 92.1% |
